Values joined by “and” are separate entries in the source; they are usually repeats but may differ in a detail not shown here. Equal values may be shown once. Where a SMILES comes first, the peptide text is derived from it. [ ]: non-standard residue; d: D form. Hyp = O=C(O)[C@@H]1C[C@@H](O)CN1
Tested on: IL-10
Assay: Example 9 Luminex, LPS hPBMCs: IL-10
Type: cell-based, human
Settings: IL-10
Protocol: Treatment Human PBMCs were pretreated with YY-101, YDE-011 and YDE-043 or reference compound; Xiidra® at various concentration (ranging from 1 nM to 100 uM) for 2 h before stimulation. An equal volume of 0.5% DMSO was used as a vehicle control. Then, the cells were treated with LPS at 5 ug/ml. The supernatants from treated cells were harvested at 24 h and placed in a 96 well for Luminex cytokine & chemokine profiling using a Luminex 200 multiplex assay (Luminex; R&D system, USA).
The main study arm with triplicate wells per group in a 24-well plate: • 1. Blank • 2. PBMC: 0.5% DMSO • 3. PBMC+LPS (5 ug/ml) • 4. PBMC+YY-101 100 uM • 5. PBMC+YY-101 10 uM • 6. PBMC+YY-101 1 uM • 7. PBMC+YY-101 0.1 uM • 8. PBMC+YY-101 0.01 uM • 9. PBMC+LPS (5 ug/ml)+Xiidra®100 uM • 10. PBMC+LPS (5 ug/ml)+Xiidra® 10 uM • 11. PBMC+LPS (5 ug/ml)+Xiidra® 1 uM • 12. PBMC+LPS (5 ug/ml)+Xiidra®0.1 uM • 13. PBMC+LPS (5 ug/ml)+Xiidra®0.01 uM • 14. PBMC+LPS (5 ug/ml)+Xiidra®0.001 uM • 15. PBMC+LPS (5 ug/ml)+YY-101 100 uM • 16. PBMC+LPS (5 ug/ml)+YY-101 10 uM • 17. PBMC+LPS (5 ug/ml)+YY-101 1 uM • 18. PBMC+LPS (5 ug/ml)+YY-101 0.1 uM • 19. PBMC+LPS (5 ug/ml)+YY-101 0.01 uM • 20. PBMC+LPS (5 ug/ml)+YY-101 0.001 uM • 21. PBMC+LPS (5 ug/ml)+YDE-011 100 uM • 22. PBMC+LPS (5 ug/ml)+YDE-011 10 uM • 23. PBMC+LPS (5 ug/ml)+YDE-011 1 uM • 24. PBMC+LPS (5 ug/ml)+YDE-011 0.1 uM • 25. PBMC+LPS (5 ug/ml)+YDE-011 0.01 uM • 26. PBMC+LPS (5 ug/ml)+YDE-011 0.001 uM • 27. PBMC+LPS (5 ug/ml)+YDE-043 100 uM • 28. PBMC+LPS (5 ug/ml)+YDE-043 10 uM • 29. PBMC+LPS (5 ug/ml)+YDE-043 1 uM • 30. PBMC+LPS (5 ug/ml)+YDE-043 0.1 uM • 31. PBMC+LPS (5 ug/ml)+YDE-043 0.01 uM • 32. PBMC+LPS (5 ug/ml)+YDE-043 0.001 uM
Multiplex assay was used to measure 30 cytokines and chemokines. The 1:2, 1:10 and 1:200 diluted cell supernatant and serial dilution of the standard were dispensed into a 96 well plate at 50 ul/well. Then, the pre-mixed cocktail of antibody-coated magnetic beads was dispensed at 50 ul/well and incubated at room temperature for 2 h in a horizontal orbital microplate shaker at 800±500 rpm. The beads were washed using a magnetic device to prevent loss. The biotin-antibody was dispensed in 50 ul of each well and incubated at room temperature for 1 h in a shaker at 800±500 rpm. After washing, streptavidin-PE was added at 50 ul/well and incubated at room temperature for 30 min in a shaker under the same conditions. Finally, after washing, wash buffer (100 ul/well) was added to the plate and incubated in a shaker for 2 min. The Luminex™ 200 setting were set according to the manufacturer's protocol. The data was calculated with a standard five-parameter logistic nonlinear regression analysis of the data (xPonent software 4.2, USA). The levels of cytokine/chemokine are normalized to the live cell counts (1×10^5 cells/mL) and presented as concentrations per mL (pg/mL or ng/mL).

[1] = PBMC + LPS(5 ug/ml) + test article 0.001 uM, Mean
[2] = PBMC + LPS(5 ug/ml) + test article 0.001 uM, single replicates
[3] = PBMC + LPS(5 ug/ml) + test article 0.01 uM, Mean
[4] = PBMC + LPS(5 ug/ml) + test article 0.01 uM, single replicates
[5] = PBMC + LPS(5 ug/ml) + test article 0.1 uM, Mean
[6] = PBMC + LPS(5 ug/ml) + test article 0.1 uM, single replicates
[7] = PBMC + LPS(5 ug/ml) + test article 1 uM, Mean
[8] = PBMC + LPS(5 ug/ml) + test article 1 uM, single replicates
[9] = PBMC + LPS(5 ug/ml) + test article 10 uM, Mean
[10] = PBMC + LPS(5 ug/ml) + test article 10 uM, single replicates
[11] = PBMC + LPS(5 ug/ml) + test article 100 uM, Mean
[12] = PBMC + LPS(5 ug/ml) + test article 100 uM, single replicates

`CC(C)C[C@H](NC(=O)CNC(=O)[C@H](CC(C)C)NC(=O)[C@H](CCC(N)=O)NC(=O)CNC(=O)[C@@H]1C[C@@H](O)CN1)C(=O)N[C@@H](C)C(=O)NCC(=O)N1CCC[C@H]1C(=O)N[C@@H](CCCCN)C(=O)O` [YDE-011] (H-[Hyp]GQLGLAGPK-OH) was tested, and the “Concentration” value [1] was 303.8 pg/mL, the “conc/live cell (pg/10^5)” value [1] was 57.2 pg/10^5 and the “Concentration” value [2] was 291.0 pg/mL and 314.2 pg/mL and 306.3 pg/mL. The “conc/live cell (pg/10^5)” value [2] was 64.7 pg/10^5 and 54.2 pg/10^5 and 52.8 pg/10^5, the “Concentration” value [3] was 318.0 pg/mL and the “conc/live cell (pg/10^5)” value [3] was 54.4 pg/10^5. The “Concentration” value [4] was 333.6 pg/mL and 325.0 pg/mL and 295.4 pg/mL, the “conc/live cell (pg/10^5)” value [4] was 52.9 pg/10^5 and 52.4 pg/10^5 and 57.9 pg/10^5 and the “Concentration” value [5] was 308.9 pg/mL. The “conc/live cell (pg/10^5)” value [5] was 54.4 pg/10^5, the “Concentration” value [6] was 299.0 pg/mL and 317.8 pg/mL and 309.9 pg/mL and the “conc/live cell (pg/10^5)” value [6] was 45.3 pg/10^5 and 63.6 pg/10^5 and 54.4 pg/10^5. The “Concentration” value [7] was 314.7 pg/mL, the “conc/live cell (pg/10^5)” value [7] was 62.8 pg/10^5 and the “Concentration” value [8] was 314.2 pg/mL and 319.3 pg/mL and 310.6 pg/mL. The “conc/live cell (pg/10^5)” value [8] was 57.1 pg/10^5 and 66.5 pg/10^5 and 64.7 pg/10^5, the “Concentration” value [9] was 300.7 pg/mL and the “conc/live cell (pg/10^5)” value [9] was 57.3 pg/10^5. The “Concentration” value [10] was 299.0 pg/mL and 295.4 pg/mL and 307.7 pg/mL, the “conc/live cell (pg/10^5)” value [10] was 55.4 pg/10^5 and 50.9 pg/10^5 and 65.5 pg/10^5 and the “Concentration” value [11] was 111.4 pg/mL. For the same compound, the “conc/live cell (pg/10^5)” value [11] was 18.4 pg/10^5, the “Concentration” value [12] was 99.4 pg/mL and 113.9 pg/mL and 121.1 pg/mL and the “conc/live cell (pg/10^5)” value [12] was 16.3 pg/10^5 and 18.7 pg/10^5 and 20.2 pg/10^5.

— US20230146455A1, “TREATMENT OF INFLAMMATORY DISEASES WITH PEPTIDES AND PHARMACEUTICAL COMPOSITIONS” (Yuyu Pharma, Inc., priority 2020, published 2023)
